Key:
Experiment in all cases: Kinase panel profiling at 1 µmol/L (mobility shift assay, Carna)
Format in all cases: biochemical
Conditions in all cases: 1 µmol/L of BTK inhibitor
FER = biological target: T1, FER (Homo sapiens, UniProt P16591)
T1 construct: purchased Carna Biosciences

TXK = biological target: T2, TXK (Homo sapiens, UniProt P42681)
T2 construct: purchased Carna Biosciences
T2 sequence (P42681 1-527): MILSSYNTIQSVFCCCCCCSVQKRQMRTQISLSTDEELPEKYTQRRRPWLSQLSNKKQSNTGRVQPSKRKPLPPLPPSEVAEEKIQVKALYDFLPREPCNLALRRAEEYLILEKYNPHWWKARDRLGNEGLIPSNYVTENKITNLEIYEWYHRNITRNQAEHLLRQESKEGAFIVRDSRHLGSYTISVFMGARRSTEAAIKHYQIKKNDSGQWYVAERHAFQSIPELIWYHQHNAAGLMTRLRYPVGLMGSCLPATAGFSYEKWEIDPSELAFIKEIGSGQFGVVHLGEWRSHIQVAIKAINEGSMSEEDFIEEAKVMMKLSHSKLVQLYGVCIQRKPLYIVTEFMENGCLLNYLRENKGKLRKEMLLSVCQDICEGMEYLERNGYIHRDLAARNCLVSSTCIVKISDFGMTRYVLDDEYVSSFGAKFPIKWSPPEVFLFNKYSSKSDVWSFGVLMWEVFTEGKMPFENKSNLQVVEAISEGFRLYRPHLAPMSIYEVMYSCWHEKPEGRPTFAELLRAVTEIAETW

IRR = biological target: T3, IRR (Homo sapiens, UniProt P14616)
T3 construct: purchased Carna Biosciences
T3 sequence (P14616 27-1297): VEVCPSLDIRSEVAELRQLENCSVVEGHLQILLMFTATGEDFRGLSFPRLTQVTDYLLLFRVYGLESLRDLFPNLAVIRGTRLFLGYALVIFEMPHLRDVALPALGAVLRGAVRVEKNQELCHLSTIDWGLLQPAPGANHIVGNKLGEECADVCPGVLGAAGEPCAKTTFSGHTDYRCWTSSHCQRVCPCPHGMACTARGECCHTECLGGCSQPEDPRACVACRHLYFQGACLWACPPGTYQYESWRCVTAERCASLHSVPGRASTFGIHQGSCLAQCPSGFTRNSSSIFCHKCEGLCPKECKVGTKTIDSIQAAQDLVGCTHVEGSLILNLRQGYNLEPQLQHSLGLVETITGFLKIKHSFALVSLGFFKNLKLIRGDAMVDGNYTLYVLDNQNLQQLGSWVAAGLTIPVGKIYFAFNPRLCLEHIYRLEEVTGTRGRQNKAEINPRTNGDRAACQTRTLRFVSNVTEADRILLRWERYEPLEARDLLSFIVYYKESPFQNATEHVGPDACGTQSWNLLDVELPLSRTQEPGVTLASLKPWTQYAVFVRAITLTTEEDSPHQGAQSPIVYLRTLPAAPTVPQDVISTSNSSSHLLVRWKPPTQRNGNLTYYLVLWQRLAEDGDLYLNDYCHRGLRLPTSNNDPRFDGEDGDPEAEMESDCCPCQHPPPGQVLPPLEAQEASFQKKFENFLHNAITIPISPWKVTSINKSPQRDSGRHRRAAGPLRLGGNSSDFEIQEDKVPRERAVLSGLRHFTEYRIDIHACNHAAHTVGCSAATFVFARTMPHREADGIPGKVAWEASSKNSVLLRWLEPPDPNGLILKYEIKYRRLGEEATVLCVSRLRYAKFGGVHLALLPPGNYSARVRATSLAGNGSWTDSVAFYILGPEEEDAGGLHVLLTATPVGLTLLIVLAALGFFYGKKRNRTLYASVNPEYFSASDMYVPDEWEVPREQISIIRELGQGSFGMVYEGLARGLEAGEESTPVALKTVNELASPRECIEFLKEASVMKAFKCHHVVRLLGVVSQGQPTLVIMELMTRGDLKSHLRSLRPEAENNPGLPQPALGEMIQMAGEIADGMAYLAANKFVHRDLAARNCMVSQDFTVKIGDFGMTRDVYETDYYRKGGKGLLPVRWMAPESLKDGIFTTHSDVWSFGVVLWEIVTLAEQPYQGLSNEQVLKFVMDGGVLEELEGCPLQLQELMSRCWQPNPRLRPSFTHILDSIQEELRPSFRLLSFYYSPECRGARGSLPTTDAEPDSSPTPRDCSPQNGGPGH

IKKα = biological target: T4, IKKα (Homo sapiens, UniProt O15111)
T4 construct: purchased Carna Biosciences
T4 sequence (O15111 1-745): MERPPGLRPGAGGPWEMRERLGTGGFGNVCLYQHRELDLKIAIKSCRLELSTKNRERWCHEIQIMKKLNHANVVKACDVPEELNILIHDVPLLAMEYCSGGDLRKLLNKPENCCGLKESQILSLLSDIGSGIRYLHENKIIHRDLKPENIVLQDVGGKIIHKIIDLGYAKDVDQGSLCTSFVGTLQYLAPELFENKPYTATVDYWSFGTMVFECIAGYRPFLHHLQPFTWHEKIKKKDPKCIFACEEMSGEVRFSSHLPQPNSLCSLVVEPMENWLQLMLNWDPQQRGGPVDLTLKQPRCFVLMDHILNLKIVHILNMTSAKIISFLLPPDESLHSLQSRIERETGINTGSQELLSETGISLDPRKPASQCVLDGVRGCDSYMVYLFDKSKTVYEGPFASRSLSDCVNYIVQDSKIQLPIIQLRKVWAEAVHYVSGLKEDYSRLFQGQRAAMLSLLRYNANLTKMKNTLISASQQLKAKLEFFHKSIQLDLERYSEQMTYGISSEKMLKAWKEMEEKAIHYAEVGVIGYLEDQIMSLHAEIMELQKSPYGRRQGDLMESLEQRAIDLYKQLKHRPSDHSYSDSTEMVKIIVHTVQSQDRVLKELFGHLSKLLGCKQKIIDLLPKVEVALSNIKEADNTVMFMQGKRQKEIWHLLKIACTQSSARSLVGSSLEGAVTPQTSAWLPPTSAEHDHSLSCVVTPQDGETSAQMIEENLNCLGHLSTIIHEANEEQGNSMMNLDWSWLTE

NIM1K = biological target: T5, NIM1K (Homo sapiens, UniProt Q8IY84)
T5 construct: purchased Carna Biosciences
T5 sequence (Q8IY84 whole entry): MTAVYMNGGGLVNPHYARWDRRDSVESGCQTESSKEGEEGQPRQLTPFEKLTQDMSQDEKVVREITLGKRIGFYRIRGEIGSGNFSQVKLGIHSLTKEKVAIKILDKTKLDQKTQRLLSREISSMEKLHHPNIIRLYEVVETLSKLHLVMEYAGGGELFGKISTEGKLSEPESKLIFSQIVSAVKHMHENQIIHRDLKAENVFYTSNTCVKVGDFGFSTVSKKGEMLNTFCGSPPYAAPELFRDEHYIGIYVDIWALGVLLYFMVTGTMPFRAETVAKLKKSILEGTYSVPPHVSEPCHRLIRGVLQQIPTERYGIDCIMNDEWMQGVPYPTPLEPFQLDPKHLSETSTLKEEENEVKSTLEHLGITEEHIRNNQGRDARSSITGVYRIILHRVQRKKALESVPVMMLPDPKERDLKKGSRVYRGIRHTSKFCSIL

CaMK2α = biological target: T6, CaMK2α (Homo sapiens, UniProt Q9UQM7)
T6 construct: purchased Carna Biosciences

HIPK2 = biological target: T7, HIPK2 (Homo sapiens, UniProt Q9H2X6)
T7 construct: purchased Carna Biosciences

CDK9/CycT1 = biological target: T8, CDK9/CycT1 (Homo sapiens, UniProt P50750)
T8 construct: purchased Carna Biosciences

PDHK4 = biological target: T9, PDHK4 (Homo sapiens, UniProt Q16654)
T9 construct: purchased Carna Biosciences
T9 sequence (Q16654 whole entry): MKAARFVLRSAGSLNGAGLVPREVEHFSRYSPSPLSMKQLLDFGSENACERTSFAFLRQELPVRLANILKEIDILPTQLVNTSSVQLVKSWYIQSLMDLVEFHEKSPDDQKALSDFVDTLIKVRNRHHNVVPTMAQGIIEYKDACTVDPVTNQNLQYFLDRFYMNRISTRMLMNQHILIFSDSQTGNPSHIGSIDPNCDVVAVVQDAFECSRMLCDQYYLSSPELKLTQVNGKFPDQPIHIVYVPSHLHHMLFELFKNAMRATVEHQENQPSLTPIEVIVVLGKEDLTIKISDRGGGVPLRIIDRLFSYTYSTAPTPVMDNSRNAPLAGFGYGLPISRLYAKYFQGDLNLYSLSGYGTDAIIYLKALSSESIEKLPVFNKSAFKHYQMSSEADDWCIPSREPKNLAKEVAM

CDC2/CycB1 = biological target: T10, CDC2/CycB1 (Homo sapiens, UniProt P06493)
T10 construct: purchased Carna Biosciences
T10 sequence (P06493 whole entry): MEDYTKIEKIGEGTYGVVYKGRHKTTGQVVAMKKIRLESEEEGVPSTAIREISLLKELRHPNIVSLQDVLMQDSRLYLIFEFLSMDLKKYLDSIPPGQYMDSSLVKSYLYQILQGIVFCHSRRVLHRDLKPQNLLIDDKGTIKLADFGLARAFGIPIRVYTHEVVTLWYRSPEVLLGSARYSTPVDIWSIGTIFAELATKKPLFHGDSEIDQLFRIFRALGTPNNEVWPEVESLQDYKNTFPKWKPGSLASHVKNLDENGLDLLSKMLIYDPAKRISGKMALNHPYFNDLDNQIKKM
T10 sequence (P14635 whole entry partner): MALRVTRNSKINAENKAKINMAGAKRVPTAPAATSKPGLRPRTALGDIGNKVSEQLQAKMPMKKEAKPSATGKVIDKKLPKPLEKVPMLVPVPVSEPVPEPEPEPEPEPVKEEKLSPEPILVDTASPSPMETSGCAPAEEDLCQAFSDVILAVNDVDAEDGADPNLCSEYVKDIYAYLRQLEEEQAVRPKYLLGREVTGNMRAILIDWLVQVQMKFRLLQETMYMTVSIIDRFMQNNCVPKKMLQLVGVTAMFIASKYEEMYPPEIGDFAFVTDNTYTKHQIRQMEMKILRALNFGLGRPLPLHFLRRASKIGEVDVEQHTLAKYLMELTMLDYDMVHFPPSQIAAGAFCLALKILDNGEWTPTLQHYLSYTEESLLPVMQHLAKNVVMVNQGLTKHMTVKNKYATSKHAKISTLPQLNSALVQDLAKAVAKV

BUB1/BUB3 = biological target: T11, BUB1/BUB3 (Homo sapiens, UniProt O43683)
T11 construct: purchased Carna Biosciences
T11 sequence (O43683 whole entry): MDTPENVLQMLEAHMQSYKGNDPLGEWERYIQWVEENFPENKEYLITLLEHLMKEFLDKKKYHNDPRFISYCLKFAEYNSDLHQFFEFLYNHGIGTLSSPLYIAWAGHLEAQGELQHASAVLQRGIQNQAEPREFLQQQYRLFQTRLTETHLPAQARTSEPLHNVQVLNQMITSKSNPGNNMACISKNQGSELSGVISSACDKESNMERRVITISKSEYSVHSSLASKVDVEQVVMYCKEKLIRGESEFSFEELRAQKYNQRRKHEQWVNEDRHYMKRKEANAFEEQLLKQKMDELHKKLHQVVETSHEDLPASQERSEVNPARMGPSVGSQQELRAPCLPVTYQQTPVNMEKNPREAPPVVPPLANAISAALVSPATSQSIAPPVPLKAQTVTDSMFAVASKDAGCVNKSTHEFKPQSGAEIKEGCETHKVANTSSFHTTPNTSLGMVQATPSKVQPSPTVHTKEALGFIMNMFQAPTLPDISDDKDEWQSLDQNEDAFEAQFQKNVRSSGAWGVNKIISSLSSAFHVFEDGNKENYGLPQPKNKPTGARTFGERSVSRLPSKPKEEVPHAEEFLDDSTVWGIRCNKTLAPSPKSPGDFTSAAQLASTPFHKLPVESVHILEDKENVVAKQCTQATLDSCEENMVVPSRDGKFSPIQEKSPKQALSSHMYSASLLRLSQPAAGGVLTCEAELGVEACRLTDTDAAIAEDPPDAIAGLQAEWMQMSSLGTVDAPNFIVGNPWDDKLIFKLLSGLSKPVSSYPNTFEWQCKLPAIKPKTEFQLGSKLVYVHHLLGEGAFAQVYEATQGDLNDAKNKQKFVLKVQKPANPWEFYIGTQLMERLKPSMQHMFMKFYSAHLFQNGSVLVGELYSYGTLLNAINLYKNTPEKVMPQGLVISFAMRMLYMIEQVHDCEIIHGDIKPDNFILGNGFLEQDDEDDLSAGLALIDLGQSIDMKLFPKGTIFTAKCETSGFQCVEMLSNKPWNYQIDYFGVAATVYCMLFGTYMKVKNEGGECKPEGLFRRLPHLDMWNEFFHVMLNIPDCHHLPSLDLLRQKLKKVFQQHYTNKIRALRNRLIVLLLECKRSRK
T11 sequence (O43684 whole entry partner): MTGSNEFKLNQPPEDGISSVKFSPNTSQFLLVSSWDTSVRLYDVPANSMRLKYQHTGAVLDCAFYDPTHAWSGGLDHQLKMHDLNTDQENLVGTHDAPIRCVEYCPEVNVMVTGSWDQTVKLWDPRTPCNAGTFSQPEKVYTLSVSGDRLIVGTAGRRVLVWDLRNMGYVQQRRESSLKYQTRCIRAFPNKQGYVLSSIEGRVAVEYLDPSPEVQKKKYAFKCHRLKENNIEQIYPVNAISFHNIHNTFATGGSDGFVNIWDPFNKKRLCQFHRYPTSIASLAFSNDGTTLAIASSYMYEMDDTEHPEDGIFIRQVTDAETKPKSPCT

PAK1 = biological target: T12, PAK1 (Homo sapiens, UniProt Q13153)
T12 construct: purchased Carna Biosciences
T12 sequence (Q13153 whole entry): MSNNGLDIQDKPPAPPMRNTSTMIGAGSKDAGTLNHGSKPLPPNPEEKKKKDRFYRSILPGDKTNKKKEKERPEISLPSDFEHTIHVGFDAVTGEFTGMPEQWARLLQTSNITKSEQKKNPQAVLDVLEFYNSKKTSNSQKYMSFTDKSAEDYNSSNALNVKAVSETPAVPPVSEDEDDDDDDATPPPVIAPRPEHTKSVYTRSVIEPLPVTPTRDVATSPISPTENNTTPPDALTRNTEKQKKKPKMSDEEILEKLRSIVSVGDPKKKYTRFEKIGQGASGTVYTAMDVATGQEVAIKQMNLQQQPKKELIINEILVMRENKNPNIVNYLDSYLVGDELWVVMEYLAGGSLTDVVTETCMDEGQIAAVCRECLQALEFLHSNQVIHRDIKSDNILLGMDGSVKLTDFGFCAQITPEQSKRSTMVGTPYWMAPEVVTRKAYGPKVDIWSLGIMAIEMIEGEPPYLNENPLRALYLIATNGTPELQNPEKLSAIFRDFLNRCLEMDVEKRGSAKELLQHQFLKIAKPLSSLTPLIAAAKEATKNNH

Erk5 = biological target: T13, Erk5 (Homo sapiens, UniProt Q13164)
T13 construct: purchased Carna Biosciences

PKCι = biological target: T14, PKCι (Homo sapiens, UniProt P41743)
T14 construct: purchased Carna Biosciences
T14 sequence (P41743 1-596): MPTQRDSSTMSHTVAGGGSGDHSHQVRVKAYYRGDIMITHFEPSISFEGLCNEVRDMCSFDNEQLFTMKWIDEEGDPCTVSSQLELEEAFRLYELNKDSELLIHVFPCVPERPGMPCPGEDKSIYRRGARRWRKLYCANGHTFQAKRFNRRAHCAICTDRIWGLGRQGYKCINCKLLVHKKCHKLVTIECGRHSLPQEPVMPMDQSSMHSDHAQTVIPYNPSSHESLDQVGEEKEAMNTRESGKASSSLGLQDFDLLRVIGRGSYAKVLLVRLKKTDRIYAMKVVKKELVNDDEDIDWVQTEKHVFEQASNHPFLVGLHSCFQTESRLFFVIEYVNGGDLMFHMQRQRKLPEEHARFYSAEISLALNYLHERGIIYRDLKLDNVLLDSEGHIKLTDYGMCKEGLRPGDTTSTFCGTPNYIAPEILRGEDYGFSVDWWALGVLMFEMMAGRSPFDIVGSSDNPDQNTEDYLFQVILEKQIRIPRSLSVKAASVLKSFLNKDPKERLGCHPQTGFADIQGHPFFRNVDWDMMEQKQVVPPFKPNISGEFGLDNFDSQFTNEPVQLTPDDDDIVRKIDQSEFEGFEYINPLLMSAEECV

PKCβ1 = biological target: T15, PKCβ1 (Homo sapiens, UniProt P05771)
T15 construct: purchased Carna Biosciences

Structure (SMILES)	Percentage inhibition of kinase enzyme activity (FER)	Percentage inhibition of kinase enzyme activity (TXK)	Percentage inhibition of kinase enzyme activity (IRR)	Percentage inhibition of kinase enzyme activity (IKKα)	Percentage inhibition of kinase enzyme activity (NIM1K)	Percentage inhibition of kinase enzyme activity (CaMK2α)	Percentage inhibition of kinase enzyme activity (HIPK2)	Percentage inhibition of kinase enzyme activity (CDK9/CycT1)	Percentage inhibition of kinase enzyme activity (PDHK4)	Percentage inhibition of kinase enzyme activity (CDC2/CycB1)	Percentage inhibition of kinase enzyme activity (BUB1/BUB3)	Percentage inhibition of kinase enzyme activity (PAK1)	Percentage inhibition of kinase enzyme activity (Erk5)	Percentage inhibition of kinase enzyme activity (PKCι)	Percentage inhibition of kinase enzyme activity (PKCβ1)
C=CC(=O)N1CCC([C@@H]2CCNc3c(C(N)=O)c(-c4ccc(Oc5ccccc5)cc4)nn32)CC1 [zanubrutinib]	1.42%	89.43%	34.27%	-9.91%	–	–	–	–	–	–	–	–	–	–	–
CC#CC(=O)N1CCC[C@H]1c1nc(-c2ccc(C(=O)Nc3ccccn3)cc2)c2c(N)nccn12 [acalabrutinib]	-2.54%	67.66%	-0.87%	-1.45%	-7.33%	-3.43%	-11.44%	15.27%	0.39%	-0.40%	5.51%	-0.37%	-2.12%	-8.38%	-10.97%
COc1ccc(F)cc1C(=O)NCc1ccc(-c2nn([C@@H](C)C(F)(F)F)c(N)c2C(N)=O)cc1 [pirtobrutinib]	7.19%	43.03%	-6.47%	-16.22%	-1.08%	-0.99%	0.19%	-6.41%	3.76%	-10.48%	3.40%	5.73%	0.51%	0.51%	5.78%
O=C(c1ccc(Oc2ccccc2)cc1Cl)c1c[nH]c2ncnc(N[C@@H]3CC[C@@H](CO)OC3)c12 [nemtabrutinib]	96.49%	97.01%	77.13%	1.80%	-2.21%	2.91%	3.26%	-0.08%	-2.73%	-7.65%	-0.62%	79.33%	15.76%	-1.29%	-3.07%
C=CC(=O)N1CCC[C@@H](n2nc(-c3ccc(Oc4ccccc4)cc3)c3c(N)ncnc32)C1 [ibrutinib]	–	98.38%	11.54%	4.34%	-2.33%	-1.35%	2.01%	–	–	-1.03%	5.19%	6.57%	3.89%	2.23%	-2.90%

Reference: article PMC12586182 (Frontiers in Oncology, 2025)
